# From patent publication US8663669B2, “Pesticide treatment of soils or substrates with sulphur compounds” (Arkema France, priority 2002, dated 2014)
# Columns and labels:
# [1] = tested on: lettuce (variety Sprintia); assay: Phytotoxicity on lettuce, in a greenhouse; type: in vivo; details: 150 kg/ha (formulation A)
# Source text: Absence of phytotoxicity on lettuce of DMDS, applied at 150 kg/ha, in the open, in a greenhouse.
# Lettuce variety: Sprintia
# Treatment: DMDS is applied in the form of formulation A with the aid of a jet sprayer, and then incorporated over a depth of about 5 cm with a rotary hoe. The soil is then covered with a black polyethylene film.
# Planting: 7 days after the treatment, at the rate of 160 000 plants/ha
# Harvesting: 2 months and 20 days after planting.
# [2] = tested on: Phytophthora cactorum; assay: Fungicidal efficacy by gassing, colonized millet grains; type: cell-based; design: Vitality score Nm (over 12 days): scale not given here; Reduction in viability RV / Reduction in vitality score RNm: unit not given here; details: for Reduction in viability RV / Reduction in vitality score RNm: compared with the control
# Source text: These four organisms are the following:
# Phytophthora cactorum, one of the best known representatives of the Phytophthora family, polyphagous fungi which attack mainly tomato, sweet pepper and strawberry plants, these three crops representing the majority of the worldwide consumption of methyl bromide. Phytophthora cactorum, in particular, attacks mainly the strawberry plant and fruit trees.
# • Sclerotinia sclerotiorum: sclerotia • Sclerotium rolfsii: sclerotia • Rhizoctonia solani: colonized barley grains (mycelium and sclerotia) • Phytophthora cactorum: colonized millet grains (mycelium, sporangia and oospores) Preparation of the Fungi (24 h Before the Gassing Operation) 1. Preparation of the sclerotia of Sclerotinia sclerotiorum and of Sclerotium rolfsii: The fungi are cultured on malt agar medium until the sclerotia are obtained. The sclerotia are collected in a sterile manner and stored dry in empty Petri dishes until they are used. The sclerotia used for the trial are over 3 months old and are perfectly dormant. 2. Preparation of Phytophthora cactorum and of Rhizoctonia solani: The millet and barley used for the multiplication of the two fungi are moistened with ultrapure water by immersing for 24 hours. The grains are then slightly drained and then distributed into flasks and autoclaved (3 autoclavings at 110° C. for 20 minutes, 3 times at 24 hour intervals). Fragments of fungal culture are introduced into the flasks which are then incubated at 22° C.±2° C. (white light 18 h) until homogeneous colonization is obtained. The grains are then removed from the flasks in a sterile manner, dried in the sterile stream of a safety cabinet and then stored in the dry state until they are used. Conditions for Gassing and for Desorption
# All the batches of fungi to be treated are placed for a few hours at the trial temperature (20° C.). Between 35 and 300 units of fungi or “propagules” (grains or sclerotia) are subjected to gassing during each trial.
# Each fumigation chamber comprising to one or more species of fungi corresponds to a glass round-bottomed flask which is impervious to the gas and has a volume of 11 litres. Each round-bottomed flask is equipped with branch connections, one at the bottom for introducing the liquid DMDS, one at the top for collecting the air sample with a syringe.
# Before introducing the gas, a partial vacuum (−500 mbar) is established in the round-bottomed flask with a vacuum pump. This makes it possible, on the one hand, to avoid the phenomenon of excess pressure due to the expansibility of DMDS in the round-bottomed flask and, on the other hand, to promote better homogeneity of the air-gas mixture in the first few seconds which follow injection. The DMDS (weighed accurately to the mg) is injected with a syringe, in liquid form, through the bottom branch connection, that is to say under the screen placed at half height of the round-bottomed flask and supporting the batches of fungi. After introducing the product, the internal pressure of the round-bottomed flask is re-established at atmospheric pressure. A magnetic stirrer operates during the entire duration of the treatment in order to properly homogenize the air-gas mixture.
# At the end of the gassing, the cover for the round-bottomed flask is removed. One minute after this operation, the batches of fungi gassed are taken out and left in the open air for 15 minutes for desorption of the DMDS. They are then transferred into a Petri dish, the latter remaining open for 5 minutes to allow perfect desorption of the gas. […]
# [3] = tested on: young tomato plants (13 cm, 3 leaves, JUMBO hybrid); assay: Phytotoxicity on young tomato plants; type: in vivo
# Experimental: For both types of crop, 4 treatments were performed on 20 plants: • untreated control • 360 kg/ha of DMDS • 540 kg/ha of DMDS • 720 kg/ha of DMDS
# Five days after the treatment, the young plants are transplanted into pots 20 cm in diameter and 35 cm in height.
# The observations relating to the number of leaves per plant and the visual state of the plants are carried out 15 and 41 days after the transplantation: […]
# [4] = tested on: a large number of fungi; details: as reported in U.S. Pat. No. 2,917,429; cited from earlier work
# [5] = CT 1 050 g·h/m^3 (C 15.91 g/m^3, T 66 h)
# [6] = CT 1 402 g·h/m^3 (C 21.24 g/m^3, T 66 h)
# [7] = CT 1 450 g·h/m^3 (C 30.96 g/m^3, T 48 h)
# [8] = CT 1 899 g·h/m^3 (C 28.77 g/m^3, T 66 h)
# [9] = CT 1 981 g·h/m^3 (C 30.02 g/m^3, T 66 h)
# [10] = CT 2 460 g·h/m^3 (C 51.25 g/m^3, T 48 h)
# [11] = CT 2 837 g·h/m^3 (C 42.98 g/m^3, T 66 h)
# [12] = CT 3 169 g·h/m^3 (C 48.02 g/m^3, T 66 h)
# [13] = CT 3 467 g·h/m^3 (C 52.53 g/m^3, T 66 h)
# [14] = CT 419 g·h/m^3 (C 17.46 g/m^3, T 24 h)
# [15] = CT 625 g·h/m^3 (C 26.04 g/m^3, T 24 h)
# [16] = CT 703 g·h/m^3 (C 29.29 g/m^3, T 24 h)
# [17] = CT 907 g·h/m^3 (C 37.79 g/m^3, T 24 h)
smiles,measurement,setting,value
"CSSC [DMDS, dimethyl disulphide]",Visual observations on the field: sign of phytotoxicity,[1]; 1 and 2 months after planting,no sign of phytotoxicity
same,Average weight of the lettuce at harvest,"[1]; harvest 2 months and 20 days after planting, control 490 g",505 g
same,Viability V,[2]; [5],95%
same,Vitality score Nm (over 12 days),[2]; [5],5.5
same,Reduction in viability RV,[2]; [5],5.0
same,Reduction in vitality score RNm,[2]; [5],43.1
same,Viability V,[2]; [6],97.8%
same,Vitality score Nm (over 12 days),[2]; [6],6.6
same,Reduction in viability RV,[2]; [6],2.2
same,Reduction in vitality score RNm,[2]; [6],32.2
same,Viability V,[2]; [7],95%
same,Vitality score Nm (over 12 days),[2]; [7],5.4
same,Reduction in viability RV,[2]; [7],3.4
same,Reduction in vitality score RNm,[2]; [7],40.7
same,Viability V,[2]; [8],97.8%
same,Vitality score Nm (over 12 days),[2]; [8],5.6
same,Reduction in viability RV,[2]; [8],2.2
same,Reduction in vitality score RNm,[2]; [8],42.6
same,Viability V,[2]; [9],97.8%
same,Vitality score Nm (over 12 days),[2]; [9],5.3
same,Reduction in viability RV,[2]; [9],2.2
same,Reduction in vitality score RNm,[2]; [9],45.7
same,Viability V,[2]; [10],43.3%
same,Vitality score Nm (over 12 days),[2]; [10],1.7
same,Reduction in viability RV,[2]; [10],55.9
same,Reduction in vitality score RNm,[2]; [10],81.2
same,Viability V,[2]; [11],16.7%
same,Vitality score Nm (over 12 days),[2]; [11],0.6
same,Reduction in viability RV,[2]; [11],83.3
same,Reduction in vitality score RNm,[2]; [11],93.6
same,Viability V,[2]; [12],1.1%
same,Vitality score Nm (over 12 days),[2]; [12],0.05
same,Reduction in viability RV,[2]; [12],98.9
same,Reduction in vitality score RNm,[2]; [12],99.5
same,Viability V,[2]; [13],0%
same,Vitality score Nm (over 12 days),[2]; [13],0
same,Reduction in viability RV,[2]; [13],100
same,Reduction in vitality score RNm,[2]; [13],100
same,Viability V,[2]; [14],91.7%
same,Vitality score Nm (over 12 days),[2]; [14],7.7
same,Reduction in viability RV,[2]; [14],6.8
same,Reduction in vitality score RNm,[2]; [14],15.5
same,Viability V,[2]; [15],100%
same,Vitality score Nm (over 12 days),[2]; [15],8.05
same,Reduction in viability RV,[2]; [15],−1.7
same,Reduction in vitality score RNm,[2]; [15],11.9
same,Viability V,[2]; [16],100%
same,Vitality score Nm (over 12 days),[2]; [16],8.3
same,Reduction in viability RV,[2]; [16],−1.7
same,Reduction in vitality score RNm,[2]; [16],9.1
same,Viability V,[2]; [17],100%
same,Vitality score Nm (over 12 days),[2]; [17],7.2
same,Reduction in viability RV,[2]; [17],−1.7
same,Reduction in vitality score RNm,[2]; [17],21.2
same,Visual symptom of phytotoxicity,"[3]; 360, 540, 720 kg/ha, 15 and 41 days after transplantation",no visual symptom of phytotoxicity
same,Average number of leaves per plant,"[3]; 360 kg/ha DMDS (formulation A), after 15 days",5.3
same,Average number of leaves per plant,"[3]; 360 kg/ha DMDS (formulation A), after 41 days",9.6
same,Average number of leaves per plant,"[3]; 540 kg/ha DMDS (formulation A), after 15 days",5.3
same,Average number of leaves per plant,"[3]; 540 kg/ha DMDS (formulation A), after 41 days",9.4
same,Average number of leaves per plant,"[3]; 720 kg/ha DMDS (formulation A), after 15 days",5.7
same,Average number of leaves per plant,"[3]; 720 kg/ha DMDS (formulation A), after 41 days",9.8
same,Difference in number of leaves between untreated control and treated plants,[3]; regardless of the concentration tested (360-720 kg/ha),no significant difference
same,Activity on a large number of fungi,[4],zero activity
